These results are taken from publication doi:10.1101/2025.08.13.670122v1 (bioRxiv, 2025).

Holding throughout (type): cell-based
Holding throughout (set-up): expressed in transfected cells; host or cells: HEK293 cells, transient PEI transfection

Test [1] concerns the target T1, AT1R (Homo sapiens, UniProt P30556).
T1 sequence (P30556 1-359): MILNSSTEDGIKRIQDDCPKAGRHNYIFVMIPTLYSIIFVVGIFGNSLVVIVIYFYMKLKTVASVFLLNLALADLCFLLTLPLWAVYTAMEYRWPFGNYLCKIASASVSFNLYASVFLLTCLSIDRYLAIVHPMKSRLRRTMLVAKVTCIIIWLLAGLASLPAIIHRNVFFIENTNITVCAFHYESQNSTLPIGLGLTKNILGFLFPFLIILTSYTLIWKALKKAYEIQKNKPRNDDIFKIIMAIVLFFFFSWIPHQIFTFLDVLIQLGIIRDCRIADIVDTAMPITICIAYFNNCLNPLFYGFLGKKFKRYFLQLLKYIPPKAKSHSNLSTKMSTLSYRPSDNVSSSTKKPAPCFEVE
Kind of test: Gαq activation BRET (GABY sensor) in HEK293 cells expressing AT1R. To be noted: for Emax Gαq (% AngII): HEK293/AT1R, GABY BRET sensor, response of the ligand at 10 μM, normalised to AngII; for EC50: HEK293 cells transiently expressing human AT1R, Gαq-RlucII/Gβ1/Gγ1-GFP10 (GABY) BRET sensor, BRET read 10 min after ligand, mean ± SEM of at least three to five independent experiments. The text has this:
(§1) We utilized a clonal cell line HEK293, referred to hereafter as HEK293 cells, which has been previously described.[7],[8] As a gracious gift from A. Inoue (Tohoku University, Sendai, Miyagi, Japan), CRISPR Gαq/11 and Gα12/13 knockout cell lines (ΔGq/11 and ΔG12/13, respectively), were derived as previously explained.[48] In brief, a CRISPR-Cas9 system was used to target either GNAQ and GNA11 or GNA12 and GNA13 genes in HEK293T cells simultaneously to generate the Gαq/11 and Gα12/13 knockout cell lines. For the production of adenovirus, we utilized HEK293A cells. All cells were grown in DMEM supplemented with 10% FBS and Penicillin-Streptomycin-L-Glutamine (10000 IU penicillin, 10000 µg/mL Streptomycin, 200 mM L-Glutamine) at 37°C in T175 flasks under a 5% CO2 humidified chamber. Periodic testing was carried out for mycoplasma contamination (ABM™, Mycoplasma PCR Detection kit). For all biosensors used, cells underwent transfection with the PEI reagent, employing a PEI:DNA ratio of 3:1. For the Gαq biosensor, HEK293 cells were transfected with the plasmids coding for Gαq-RLucII (120 ng), Gβ1 (3000 ng), Gγ1-GFP10 (3000 ng), human AT1 (3000 ng) and Salmon sperm DNA (SSD) (880 ng). For the β-arrestin2 recruitment assay, HEK293 cells were transfected with the plasmids coding for 120 ng β-arrestin-2-RLucII, 3000 ng AT1, 3000 ng rGFP-CAAX, and 3880 ng SSD. For the measurement of PKC, HEK293 cells were transfected with 3000 ng AT1, 600 ng PKC-c1b, and 6400 ng SSD. […] 100 µL of the cell/DNA mixture was added to white 96-well plates and incubated at 37°C at 5% CO2 for 48 h. For the Rho assay, ΔG12/13 cells were seeded at a density of 9,000 cells per well in poly-ornithine-coated white 96-well plates and transfected the following day. In brief, 1 μg of total DNA in 100 μL of PBS was mixed with 100 μL of PBS containing 3 μL of 1 mg/mL PEI. For Rho signaling, 150 ng of AT1R DNA with 25 ng of PKN-RBD-RlucII [8], and 100 ng of rGFP-CAAX were used. Empty pcDNA was used to reach 1 µg of the total DNA amount in 100 μL of PBS. The DNA was then mixed with 100 μL of PBS containing 3 μL of 1 mg/mL PEI. After a 20-min incubation, the DNA/PEI complexes were dispensed into cells in 96-well plates (15 µL/well), and the experiment was carried out 48 h post-transfection.
(§2) On the day of the experiment, each well was washed with 80 µL of Tyrode’s buffer (140 mM NaCl, 2.7 mM KCl, 1 mM CaCl2, 12 mM NaHCO3, 5.6 mM D-glucose, 0.5 mM MgCl2, 0.37 mM NaH2PO4, 25 mM Hepes (pH 7.4)). This was followed by incubation for 1 h in Tyrode’s buffer at room temperature. For the Gαq, β-arrestin-2, and PKC biosensors used in HEK293 cells, coelenterazine 400A (at a final concentration of 5 μM) was added 10 min before stimulation. Cells were then stimulated with increasing doses of the indicated ligand, and BRET signals were measured using a Tristar2 (Berthold) microplate reader 10 min later. For the PKC and Rho biosensors in VSMCs, and the Rho biosensor in ΔG12/13 cells, cells were similarly stimulated with ligands for 1 min, 1 min 30 s, and 3 min, respectively, before BRET measurement. […] BRET signals were then measured using a Synergy2 (BioTek) microplate reader. The applied filter set was 410/80 nm and 515/30 nm, designed to detect the light emissions of RlucII (Renilla luciferase) (donor) and rGFP (acceptor), respectively.
Background: BRET reads energy transfer from a luciferase to a nearby fluorophore.

The target in test [2] is T1, AT1R. Kind of test: β-arrestin2 recruitment BRET (β-arrestin2-RLucII/rGFP-CAAX) in HEK293 cells expressing AT1R. The conditions noted are these: for Emax βarr2 (% AngII): HEK293/AT1R, β-arrestin2 BRET, response of the ligand at 10 μM, normalised to AngII; for EC50: HEK293 cells transiently expressing AT1R, β-arrestin2-RLucII/rGFP-CAAX BRET, read 10 min after ligand, mean ± SEM of at least three to five independent experiments, SEM, read-out: EC50 βarr2.
Text: as §1, §2

The target of test [3] is T1, AT1R. Kind of test: Rho BRET sensor (PKN-RBD-RlucII/rGFP-CAAX) in ΔG12/13 HEK293 cells expressing AT1R. The conditions noted are these: for Emax Rho Gαq/11 (% AngII): ΔG12/13 HEK293/AT1R, Rho BRET sensor, response at 10 μM, normalised to AngII; for EC50: ΔG12/13 HEK293 cells expressing AT1R, Rho (PKN-RBD-RlucII/rGFP-CAAX) BRET sensor, 3 min stimulation, mean ± SEM of at least three to five independent experiments, SEM, read-out: EC50 Rho Gαq/11.
Text: as §1
On the day of the experiment, each well was washed with 80 µL of Tyrode’s buffer (140 mM NaCl, 2.7 mM KCl, 1 mM CaCl2, 12 mM NaHCO3, 5.6 mM D-glucose, 0.5 mM MgCl2, 0.37 mM NaH2PO4, 25 mM Hepes (pH 7.4)). This was followed by incubation for 1 h in Tyrode’s buffer at room temperature. […] Cells were then stimulated with increasing doses of the indicated ligand, and BRET signals were measured using a Tristar2 (Berthold) microplate reader 10 min later. […] BRET signals were then measured using a Synergy2 (BioTek) microplate reader. […]

As for `CC[C@H](C)[C@H](NC(=O)[C@H](Cc1ccc(O)cc1)NC(=O)[C@@H](NC(=O)[C@H](CCCNC(=N)N)NC(=O)[C@@H](N)CC(=O)O)C(C)C)C(=O)N[C@@H](Cc1c[nH]cn1)C(=O)N1CCC[C@H]1C(=O)N[C@@H](Cc1ccc(OC)cc1)C(=O)O` [compound 11], the “Emax Gαq (% AngII)” value at AT1R [1] worked out at 113 % AngII. Besides, at AT1R [1] (SEM), the EC50 turned out to be 1.1 ± 0.4 nM. On AT1R [2], the “Emax βarr2 (% AngII)” value turned out to be 105 % AngII and the EC50 was 0.36 ± 0.1 nM. Moreover, on AT1R [3], the “Emax Rho Gαq/11 (% AngII)” value is 105 % AngII and the EC50 stood at 2.3 ± 0.5 nM.

With `CC[C@H](C)[C@H](NC(=O)[C@H](Cc1ccc(O)cc1)NC(=O)[C@@H](NC(=O)[C@H](CCCNC(=N)N)NC(=O)[C@@H](N)CC(=O)O)C(C)C)C(=O)N[C@@H](Cc1c[nH]cn1)C(=O)N1CCC[C@H]1C(=O)N[C@@H](Cc1ccc(OCc2ccccc2)cc1)C(=O)O` [compound 12], at AT1R [1], the “Emax Gαq (% AngII)” value worked out at 11 % AngII and the EC50 is above 10000 nM. Further, at AT1R [2], the “Emax βarr2 (% AngII)” value turned out to be 89 % AngII and the EC50 stood at 2.5 ± 0.4 nM. For the same compound, on AT1R [3], the “Emax Rho Gαq/11 (% AngII)” value is 47 % AngII and the EC50 was 21 ± 5 nM.
